Test results published in the supplement of paper PMC10307832.

How the values were obtained:
Assay in all cases: relative viability (nuclei count vs DMSO), 5 days (fraction); higher = more cells survive
BGJ398 + OSI-027 = compound: CCN1CCN(c2ccc(Nc3cc(N(C)C(=O)Nc4c(Cl)c(OC)cc(OC)c4Cl)ncn3)cc2)CC1 [BGJ398] + COc1cccc2cc(-c3nc([C@H]4CC[C@H](C(=O)O)CC4)n4ncnc(N)c34)[nH]c12 [OSI-027] (partner 0.5 µM)
Summary of the method: (§1)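 Each reported value is a median over duplicate plates. It expresses relative viability: treated-well nuclei count divided by vehicle-well nuclei count. Lung cancer cell lines in 1536-well plates were dosed by pin tool a day after seeding, alone with one drug or with a fixed anchor-drug dose plus five library-drug doses (not always all listed) in √10 steps, and nuclei were counted after 5 days.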

BGJ398 + Linsitinib = compound: CCN1CCN(c2ccc(Nc3cc(N(C)C(=O)Nc4c(Cl)c(OC)cc(OC)c4Cl)ncn3)cc2)CC1 [BGJ398] + C[C@]1(O)C[C@@H](c2nc(-c3ccc4ccc(-c5ccccc5)nc4c3)c3c(N)nccn32)C1 [Linsitinib] (partner 1 µM)
Summary of the method: as §1

BGJ398 + Alpelisib = compound: CCN1CCN(c2ccc(Nc3cc(N(C)C(=O)Nc4c(Cl)c(OC)cc(OC)c4Cl)ncn3)cc2)CC1 [BGJ398] + Cc1nc(NC(=O)N2CCC[C@H]2C(N)=O)sc1-c1ccnc(C(C)(C)C(F)(F)F)c1 [Alpelisib] (partner 2 µM)
Summary of the method: as §1

BGJ398 + Vorinostat = compound: CCN1CCN(c2ccc(Nc3cc(N(C)C(=O)Nc4c(Cl)c(OC)cc(OC)c4Cl)ncn3)cc2)CC1 [BGJ398] + O=C(CCCCCCC(=O)Nc1ccccc1)NO [Vorinostat] (partner 1 µM)
Summary of the method: as §1

Cell Line	relative viability (BGJ398 + OSI-027; first compound 0.01 µM)	relative viability (BGJ398 + OSI-027; first compound 0.03162 µM)	relative viability (BGJ398 + OSI-027; first compound 0.1 µM)	relative viability (BGJ398 + OSI-027; first compound 0.3162 µM)	relative viability (BGJ398 + OSI-027; first compound 1 µM)	relative viability (BGJ398 + Linsitinib; first compound 0.01 µM)	relative viability (BGJ398 + Linsitinib; first compound 0.03162 µM)	relative viability (BGJ398 + Linsitinib; first compound 0.1 µM)	relative viability (BGJ398 + Linsitinib; first compound 0.3162 µM)	relative viability (BGJ398 + Linsitinib; first compound 1 µM)	relative viability (BGJ398 + Alpelisib; first compound 0.01 µM)	relative viability (BGJ398 + Alpelisib; first compound 0.03162 µM)	relative viability (BGJ398 + Alpelisib; first compound 0.1 µM)	relative viability (BGJ398 + Alpelisib; first compound 0.3162 µM)	relative viability (BGJ398 + Alpelisib; first compound 1 µM)	relative viability (BGJ398 + Vorinostat; first compound 0.01 µM)	relative viability (BGJ398 + Vorinostat; first compound 0.03162 µM)	relative viability (BGJ398 + Vorinostat; first compound 0.1 µM)	relative viability (BGJ398 + Vorinostat; first compound 0.3162 µM)	relative viability (BGJ398 + Vorinostat; first compound 1 µM)
NCI-H1975	0.71	0.923	0.736	0.629	0.646	1.08	1.07	1.11	1.03	0.965	0.601	0.642	0.745	0.667	0.61	0.677	0.794	0.758	0.677	0.672
NCI-H1651	0.562	0.661	0.728	0.635	0.709	0.874	0.938	1.05	1.04	0.895	1.04	0.952	0.961	0.918	0.939	0.473	0.544	0.554	0.579	0.405
NCI-H441	0.621	0.626	0.758	0.564	0.62	0.526	0.569	0.7	0.486	0.484	0.775	0.707	0.644	0.73	0.593		0.73	0.822	0.916	0.81
LCLC-103H	0.495	0.406	0.44	0.367	0.382	1.05	1.15	1.07	1.02	1.1	1.03	0.954	0.991	0.975	0.778	0.769	0.784	0.68	0.697	0.602
LCLC-97TM1	0.381	0.578	0.464	0.567	0.528	0.169	0.159	0.194	0.212	0.186	0.233	0.269	0.231	0.214	0.265	0.533	0.691	0.743	0.781	0.753
NCI-H727	0.595	0.791	0.543	0.519	0.745	0.345	0.281	0.286	0.291	0.301	0.625	0.665	0.524	0.578	0.5	1.06	1.26	1.21	1.22	0.858
NCI-H1355	0.356	0.408	0.428	0.413	0.315	0.741	0.807	0.827	0.779	0.823	0.71	0.828	0.9	0.837	0.823	0.576	0.626	0.695	0.607	0.49
HOP-62	0.792	0.986	0.916	0.83	0.889	1	1.11	1.02	0.876	0.946	0.721	1.02	0.824	0.861	0.984	0.694	0.618	0.626	0.575	0.602
NCI-H2085	0.706	0.673	0.84	0.663	0.807	0.872	0.943	0.975	1.01	0.934	0.96	1.01	0.93	0.975	0.921	0.741	0.751	0.863	0.832	0.815
